As a reminder, the IC50 is the midpoint of a concentration-inhibition curve.

One test has as its system HIV-1 (isolated standard virus Z2Z6) in PM1 cells. The test can be described thus: Anti-HIV evaluation in HIV-1-infected PM1 lymphocytic cell culture, cell viability read by MTT technique. The test is classed as cell-based. As to conditions: 10^4 cells/well, infected with HIV-1 isolate Z2Z6 at MOI 0.002, MTT cellular viability on 6th day after infection, cut-off 50% of emission of uninfected cells. On the procedure: The pharmacological evaluation of the derivatives obtained was undertaken using test plates with a PM1 strain cell culture, lymphocytic strain established in culture, expressing the receptors CD4+ and co-receptors C5 and R4 of the HIV-1 and producers of syncytium, incubated with isolated standard virus Z2Z6 purified by passage in cell culture PM-1, having a titer of 3.96×10^2 TCID50/ml. The infection was accomplished by using plates having 96 wells, each containing 10^4 cells/well, infected with a MOI (Multiplicity Of Infection) of 0.002. The compounds being evaluated were initially diluted in dimethylsulphoxide (DMSO) to a final concentration of 10 mM and subsequently diluted in base medium RPMI 1640 to 20 μM.
Nine wells of the cells infected initially with the isolated HIV Z6 were exposed to decreasing concentrations of the compounds at 20 μM by a factor of 2 (base log 2). The culture medium employed was the RPMI 1640, added with 10% bovine foetal serum, antibiotics […]/penicilyne and L-glutamine.
The last and tenth well was kept as a control of the infection, without the presence of the drug blank. Each line of ten wells was produced in triplicate, for posterior statistical analysis. INDINAVIR was used as control, in the same dilutions as the compounds being tested. Cytotoxic analysis was carried out on a fourth set of 10 (ten) wells with cells by applying the compounds of the present invention diluted as described hereinabove. The plates were kept in an oven with 5% CO2, at a temperature of 37° C. and verified daily by optical phase microscopy for the analysis of the occurance of syncytia, which was confirmed on the 4th day after infection.
The results were analysed using a Microsoft Excel matrix, with correction of the blanks, and plotting of the emission frequency graph of the assay (in percentage, using as the 100% standard the emission from the viable cells of the wells without infection) as measurement of cellular viability. The value of 50% of emission of the standard was considered as cut-off point for the IC50 calculation. This value was attained, after plotting on the graph of the logarithmic regression curve equation, the points obtained from the IC curve prior to the formation of the plateau of the curve.
In the case of `CC(O)C(C)O` (stereo not shown) [Compound 11b], the IC50 was over 100 µM.

The same test, now with this note: 10^4 cells/well, infected with HIV-1 isolate Z2Z6 at MOI 0.002, MTT cellular viability on 6th day after infection, cut-off 50% of emission of uninfected cells, read-out: IC50.
`CCOC(=O)[C@H](Cc1ccccc1)NC(=O)[C@H](O)[C@@H](O)C(=O)N[C@@H](Cc1ccccc1)C(=O)OCC` [Compound 19, 1N,4N-di[1-carbetoxy-2-phenyl-(1S)-ethyl]-2,3-dihydroxy-(2R,3R)-butanediamide]: the IC50 was over 100 µM. For “1N,4N-di[1-carbetoxy-2-phenyl-(1S)-ethyl]-2,3-dihydroxy-(2S,3S)-butanediamide [Compound 3e]”, the IC50 was over 100 µM. In the case of `O=C(NCc1ccccc1)[C@H](O)[C@@H](O)C(=O)NCc1ccccc1` [Compound 21, 1N,4N-dibenzyl-2,3-dihydroxy-(2R,3R)-butanediamide], the half-inhibitory concentration (IC50) is over 100 µM. Take “1N,4N-di[1-carbetoxy-3-methyl-(1S)-butyl]-2,3-dihydroxy-(2S,3S)-butanediamide [Compound 3c]”: the IC50 came out at 10 µM. As to `NNC(=O)[C@H](Cc1ccccc1)NC(=O)[C@@H](O)[C@H](O)C(=O)N[C@@H](Cc1ccccc1)C(=O)NN` [Compound 14e, 1N,4N-di[1-carbonylhydrazine-2-phenyl-(1S)-ethyl]-2,3-dihydroxy-(2S,3S)-butanediamide], the half-maximal inhibitory concentration (IC50) was over 100 µM.

Consider `O=C(NCc1ccccc1)[C@H](Cc1ccccc1)NC(=O)[C@@H](O)[C@H](O)C(=O)N[C@@H](Cc1ccccc1)C(=O)NCc1ccccc1` [Compound 15, 1N,4N-di[1-carbonylbenzylamine-2-phenyl-(1S)-ethyl]-2,3-dihydroxy-(2S,3S)-butanediamide], for which the IC50 was over 100 µM. Turning to “1N,4N-di[-carbetoxy-2-phenyl-(1S)-ethyl]-2,3-diacetoxy-(2S,3S)-butanediamide [Compound 10e]”, the IC50 came to 50 µM. Consider `CC(=O)O[C@H](C(=O)NCc1ccccc1)[C@H](OC(C)=O)C(=O)NCc1ccccc1` [Compound 8a, 1N,4N-dibenzyl-2,3-diacetoxy-(2S,3S)-butanediamide], for which the IC50 is over 100 µM. For the compound `CCOC(=O)[C@H](C)NC(=O)[C@@H](O)[C@H](O)C(=O)N[C@@H](C)C(=O)OCC` [Compound 3a, 1N,4N-di[1-carbetoxy-(1S)-ethyl]-2,3-dihydroxy-(2S,3S)-butanediamide], the IC50 is over 100 µM. In the case of “1N,4N-di[2-(4-hydroxyphenyl)-1-carbetoxy-1-(1S)-ethyl]-2,3-dihydroxy-(2S,3S)-butanediamide [Compound 3f]”, the IC50 is 50 µM. In the case of “1,4-di(benzylamine)-(2S,3S)-butane-2,3-diol [Compound 2a]”, the IC50 was over 100 µM. On to `O[C@H](CNCc1ccccc1)[C@H](O)CNCc1ccccc1` [Compound 22, 1,4-di(benzylamine)-(2R,3R)-butane-2,3-diol], for which the IC50 is over 100 µM. For “1N,4N-di[1-carbetoxy-2-methyl-(1S)-propyl]-2,3-dihydroxy-(2S,3S)-butanediamide [Compound 3b]”, the IC50 is over 100 µM. For the compound “1N,4N-di[1-carbetoxy-2-(1H-3-indoyl)-(1S)-ethyl]-2,3-dihydroxy-(2S,3S)-butanediamide [Compound 3g]”, the IC50 is over 100 µM. Regarding `CCOC(=O)[C@H](Cc1ccccc1)NC(=O)[C@H](OC(C)=O)[C@@H](OC(C)=O)C(=O)N[C@@H](Cc1ccccc1)C(=O)OCC` [Compound 18, 1N,4N-di[1-carbetoxy-2-phenyl-(1S)-ethyl]-2,3-diacetoxy-(2R,3R)-butanediamide], the IC50 was over 100 µM.

On to `O=C(NCc1ccccc1)[C@@H](O)[C@H](O)C(=O)NCc1ccccc1` [Compound 1a, 1N,4N-dibenzyl-2,3-dihydroxy-(2S,3S)-butanediamide], for which the 50% inhibitory concentration (IC50) is over 100 µM. Same read-out and setting: for `CC(=O)O[C@@H](C(=O)NCc1ccccc1)[C@@H](OC(C)=O)C(=O)NCc1ccccc1` [Compound 20, 1N,4N-dibenzyl-2,3-diacetoxy-(2R,3R)-butanediamide] the value was over 100 µM; for `CCOC(=O)[C@@H](NC(=O)[C@@H](O)[C@H](O)C(=O)N[C@H](C(=O)OCC)[C@@H](C)CC)[C@@H](C)CC` [Compound 3d, 1N,4N-di[1-carbetoxy-2-methyl-(1S,2S)-butyl]-2,3-dihydroxy-(2S,35)-butanediamide], over 100 µM.

These data come from US20030158152A1, “Protease inhibitors and their pharmaceutical uses” (priority 2000, published 2003).
